Test results reported in patent publication US20040180855A1, “Methods of treating thrombosis with reduced risk of increased bleeding times” (priority 2003, published 2004).

Tests used:
rat plasma (ex vivo PT) = experiment: Ex vivo clotting time PT; format: in vivo; details: loading plus sustaining i.v. infusion
Experimental: (§1) Ex Vivo Clotting Times Ex vivo clotting time assays were used to determine the level of anticoagulation achieved in the thrombosis and bleeding time procedures, described above. A small organic compound for inhibiting Factor XIa was administered at doses (mg/kg+mg/kg/hr) of 0.5+0.5 (n=3), 2+2 (n=4), 6+6 (n=3), 12+12 (n=3) and 24+24 (n=10). Carotid artery blood (0.6 mL drawn into 1/10 volume of 3.8% Na-citrate) was sampled before (0 min control) and at 5, 15, 30, 60 and 90 min after the start of the compound infusion. The APTT was determined in freshly prepared plasma from each sample using the standard procedure for Dade Actin FSL reagent (Baxter Healthcare Corp., Miami, Fla.). The PT was determined in some animals from the 6+6 (n=3), 12+12 (n=3) and 24+24 (n=2) dose groups using Dade Thromboplastin●C reagent.
(§2) Plasma was sampled before (0 min control) and after the infusion, at intervals of 5, 15, 30, 60 and 90 min after initiating the infusion. Average APTT increases over the 15-90 min period, an interval most applicable to thrombosis and bleeding time protocols, were calculated. Control APTT values averaged 19.9±1.3 seconds overall. The PT was unaltered as expected from in vitro results. […] The range of efficacious doses in venous and arterial thrombosis (2+2, 6+6, 12+12; mg/kg+mg/kg/hr) produced an APTT increase of about 2.8 times control.

Plasmin = biological target: T1, Plasmin (Homo sapiens, UniProt P00747); experiment: Selectivity assay plasmin; format: biochemical; details: Table 3
T1 construct: Plasmin (Kabi Vitrum) was measured as for thrombin; purchased Kabi Vitrum
T1 sequence (P00747 581-810 limits assumed): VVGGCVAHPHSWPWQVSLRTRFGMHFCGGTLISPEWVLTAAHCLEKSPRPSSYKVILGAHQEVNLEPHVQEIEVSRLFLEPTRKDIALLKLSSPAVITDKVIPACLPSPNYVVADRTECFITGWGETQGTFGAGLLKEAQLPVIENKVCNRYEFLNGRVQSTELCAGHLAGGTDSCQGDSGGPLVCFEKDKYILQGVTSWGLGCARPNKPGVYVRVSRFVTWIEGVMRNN
T1 sequence (P00747 97-580 partner limits assumed): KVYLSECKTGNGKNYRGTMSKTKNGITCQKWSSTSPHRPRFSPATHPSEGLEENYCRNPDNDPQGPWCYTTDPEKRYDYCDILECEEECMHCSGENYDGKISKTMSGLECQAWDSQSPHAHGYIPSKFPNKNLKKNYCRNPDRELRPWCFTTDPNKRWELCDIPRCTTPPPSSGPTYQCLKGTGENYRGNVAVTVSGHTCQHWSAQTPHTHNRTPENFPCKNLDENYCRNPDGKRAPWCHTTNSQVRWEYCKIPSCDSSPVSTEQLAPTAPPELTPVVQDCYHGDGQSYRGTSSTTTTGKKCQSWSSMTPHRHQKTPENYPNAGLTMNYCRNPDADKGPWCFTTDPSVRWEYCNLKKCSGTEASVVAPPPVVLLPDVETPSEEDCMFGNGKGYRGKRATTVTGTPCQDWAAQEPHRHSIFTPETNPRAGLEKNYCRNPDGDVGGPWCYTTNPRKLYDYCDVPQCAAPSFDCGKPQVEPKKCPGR

Human TF:FVIIa = biological target: T2, Human TF:FVIIa (Homo sapiens, UniProt P08709); experiment: Selectivity assay TF:FVIIa; format: biochemical; details: Table 3
T2 construct: purchased Enzyme Research Labs (FVIIa); Dade (Innovin, tissue factor)
T2 sequence (P08709 213-466 limits assumed): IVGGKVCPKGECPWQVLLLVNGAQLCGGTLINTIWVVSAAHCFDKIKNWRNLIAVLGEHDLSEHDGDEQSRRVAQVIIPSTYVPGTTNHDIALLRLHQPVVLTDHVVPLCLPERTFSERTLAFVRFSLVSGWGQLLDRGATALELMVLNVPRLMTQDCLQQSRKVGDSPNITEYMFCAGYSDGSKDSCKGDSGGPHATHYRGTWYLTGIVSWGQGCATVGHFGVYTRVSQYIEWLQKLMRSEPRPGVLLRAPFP
T2 sequence (P08709 61-212 partner limits assumed): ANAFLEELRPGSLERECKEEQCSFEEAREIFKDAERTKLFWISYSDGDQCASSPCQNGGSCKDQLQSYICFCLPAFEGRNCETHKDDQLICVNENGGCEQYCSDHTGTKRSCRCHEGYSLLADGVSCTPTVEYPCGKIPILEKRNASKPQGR
T2 sequence (P13726 33-295 partner): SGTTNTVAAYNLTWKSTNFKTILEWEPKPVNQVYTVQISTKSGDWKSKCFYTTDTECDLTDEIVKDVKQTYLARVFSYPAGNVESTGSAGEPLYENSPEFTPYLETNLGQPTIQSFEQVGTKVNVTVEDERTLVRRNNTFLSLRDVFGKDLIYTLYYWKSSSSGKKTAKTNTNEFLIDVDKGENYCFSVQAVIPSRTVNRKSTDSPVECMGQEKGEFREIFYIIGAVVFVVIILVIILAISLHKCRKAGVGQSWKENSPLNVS
Experimental: Human TF:FVIIa activity was measured using isolated human FVIIa (Enzyme Research Labs) in the presence of recombinant human tissue Factor (Dade Innovin) in a buffer containing 20 mM HEPES, 150 mM NaCl, 5mM CaCl2, 1 mM CHAPS and 1 mg/mL PEG 6000 (pH to 7.4).

human α-thrombin = biological target: T3, human α-thrombin (Homo sapiens, UniProt P00734); experiment: Selectivity assay thrombin; format: biochemical; details: Table 3
T3 construct: Enzymatic activity of human α-thrombin (Sigma) was measured; purchased Sigma

[1] = test system: rat plasma (ex vivo APTT); experiment: Ex vivo clotting time APTT; format: in vivo; details: for APTT Increase (X Control): average over 15-90 min
Experimental: as §1, §2

IC50 (Plasmin): 1.7 µM
IC50 (Human TF:FVIIa): 0.486 µM
IC50 (human α-thrombin): 10.5 µM
Compound: CC(C)(C)NC(=O)N1CCN(C(=O)N2C(=O)[C@H](CCCNC(=N)N)[C@H]2C(=O)O)CC1 [Example 4]
effect on ex vivo PT (rat plasma (ex vivo PT)): unaltered
APTT Increase (X Control) ([1]; dose 0.5 + 0.5 mg/kg + mg/kg/hr): 1.57 ± 0.22 X Control
APTT Increase (X Control) ([1]; dose 2 + 2 mg/kg + mg/kg/hr): 2.81 ± 0.21 X Control
APTT Increase (X Control) ([1]; dose 6 + 6 mg/kg + mg/kg/hr): 2.73 ± 0.19 X Control
APTT Increase (X Control) ([1]; dose 12 + 12 mg/kg + mg/kg/hr): 2.79 ± 0.26 X Control
APTT Increase (X Control) ([1]; dose 24 + 24 mg/kg + mg/kg/hr): 3.29 ± 0.85 X Control
APTT increase ([1]; range of efficacious doses 2+2, 6+6, 12+12 mg/kg+mg/kg/hr): about 2.8 times control
